Experimental data published in ChEMBL document CHEMBL1201862, “PubChem BioAssay data set” (2004).
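Five concentrations, 48 hours, 96-well plates. At the GI50, growth is halved.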 Activity calls are given as the source filed them. No stated cut-off is given here; in the data, active = GI50 up to about 1.1 µM and inactive = higher.

Key:
Test in all cases: NCI-60 cell line screen, 48 h
786-0 = system: 786-0
A498 = system: A498
COLO 205 = system: COLO 205
HL-60 = system: HL-60
HOP-62 = system: HOP-62
Hs-578T = system: Hs-578T
LOX IMVI = system: LOX IMVI
MCF7 = system: MCF7
MDA-MB-435 = system: MDA-MB-435
MDA-N = system: MDA-N
MOLT-4 = system: MOLT-4
OVCAR-5 = system: OVCAR-5
OVCAR-8 = system: OVCAR-8
SK-MEL-2 = system: SK-MEL-2
SK-MEL-5 = system: SK-MEL-5
SK-OV-3 = system: SK-OV-3
T47D = system: T47D
HCC 2998 = system: HCC 2998
SF-539 = system: SF-539
OVCAR-4 = system: OVCAR-4

C#CCOC(=O)C(N)CCSC (stereo unspecified)
GI50 (786-0): > 100 µM (inactive)
GI50 (A498): > 100 µM (inactive)
GI50 (COLO 205): > 100 µM (inactive)
GI50 (HL-60): > 100 µM (inactive)
GI50 (HOP-62): > 100 µM (inactive)
GI50 (Hs-578T): > 100 µM (inactive)
GI50 (LOX IMVI): > 100 µM (inactive)
GI50 (MCF7): > 100 µM (inactive)
GI50 (MDA-MB-435): > 100 µM (inactive)
GI50 (MDA-N): > 100 µM (inactive)
GI50 (MOLT-4): > 100 µM (inactive)
GI50 (OVCAR-5): > 100 µM (inactive)
GI50 (OVCAR-8): > 100 µM (inactive)
GI50 (SK-MEL-2): > 100 µM (inactive)
GI50 (SK-MEL-5): > 100 µM (inactive)
GI50 (SK-OV-3): > 100 µM (inactive)
GI50 (T47D): > 100 µM (inactive)

COC12OC3(C4OC41)C(C(=O)O[C@H]3CO[Si](C)(C)C(C)(C)C)C2S(=O)(=O)c1ccccc1 (stereo partly specified)
GI50 (786-0): 2.89 µM (inactive)
GI50 (COLO 205): 21.9 µM (inactive)
GI50 (HCC 2998): > 100 µM (inactive)
GI50 (HL-60): < 0.01 µM (active)
GI50 (HOP-62): > 4.65 µM (inactive)
GI50 (Hs-578T): 4.65 µM (inactive)
GI50 (MCF7): 4.1 µM (inactive)
GI50 (MDA-MB-435): > 4.65 µM (inactive)
GI50 (MOLT-4): 2.25 µM (inactive)
GI50 (OVCAR-5): > 4.65 µM (inactive)
GI50 (OVCAR-8): 4.65 µM (inactive)
GI50 (SF-539): > 100 µM (inactive)
GI50 (SK-MEL-2): > 4.65 µM (inactive)
GI50 (SK-OV-3): > 4.65 µM (inactive)
GI50 (T47D): > 83.9 µM (inactive)

N#Cc1c(N2CCN(c3ccc([N+](=O)[O-])cc3)CC2)[n+]([O-])c2ccccc2[n+]1[O-]
GI50 (786-0): > 100 µM (inactive)
GI50 (COLO 205): > 100 µM (inactive)
GI50 (HCC 2998): > 100 µM (inactive)
GI50 (HOP-62): > 100 µM (inactive)
GI50 (LOX IMVI): 32.4 µM (inactive)
GI50 (MCF7): > 100 µM (inactive)
GI50 (MDA-MB-435): > 100 µM (inactive)
GI50 (MDA-N): > 100 µM (inactive)
GI50 (MOLT-4): 1.93 µM (inactive)
GI50 (OVCAR-4): > 100 µM (inactive)
GI50 (OVCAR-5): > 100 µM (inactive)
GI50 (OVCAR-8): 20.5 µM (inactive)
GI50 (SF-539): 38.3 µM (inactive)
GI50 (SK-MEL-2): > 100 µM (inactive)
GI50 (SK-MEL-5): > 100 µM (inactive)
GI50 (SK-OV-3): > 100 µM (inactive)
GI50 (T47D): 55.6 µM (inactive)

O=C(Nc1nnc(-c2ccc(Cl)cc2)o1)C(SC(=S)N1CCOCC1)c1ccccc1 (stereo unspecified)
GI50 (786-0): 9.35 µM (inactive)
GI50 (A498): 20.4 µM (inactive)
GI50 (COLO 205): 13.7 µM (inactive)
GI50 (HL-60): 5.69 µM (inactive)
GI50 (HOP-62): 16.6 µM (inactive)
GI50 (Hs-578T): 46.2 µM (inactive)
GI50 (LOX IMVI): 7.94 µM (inactive)
GI50 (MCF7): 22.3 µM (inactive)
GI50 (MDA-MB-435): 17.6 µM (inactive)
GI50 (MOLT-4): 4.38 µM (inactive)
GI50 (OVCAR-4): 20.2 µM (inactive)
GI50 (OVCAR-5): 34.8 µM (inactive)
GI50 (OVCAR-8): 19.7 µM (inactive)
GI50 (SF-539): 16.7 µM (inactive)
GI50 (SK-MEL-2): 14.7 µM (inactive)
GI50 (SK-MEL-5): 12.4 µM (inactive)
GI50 (SK-OV-3): 28.1 µM (inactive)
GI50 (T47D): 21.7 µM (inactive)

CC1CCCC2=C1C(c1ccc(Cl)cc1)n1c(s/c(=C\c3ccc(Cl)cc3)c1=O)=N2 (stereo unspecified)
GI50 (786-0): > 100 µM (inactive)
GI50 (A498): > 100 µM (inactive)
GI50 (COLO 205): > 100 µM (inactive)
GI50 (HOP-62): > 100 µM (inactive)
GI50 (Hs-578T): > 100 µM (inactive)
GI50 (LOX IMVI): > 100 µM (inactive)
GI50 (MCF7): > 100 µM (inactive)
GI50 (MDA-MB-435): > 100 µM (inactive)
GI50 (MDA-N): > 100 µM (inactive)
GI50 (OVCAR-5): > 100 µM (inactive)
GI50 (OVCAR-8): > 100 µM (inactive)
GI50 (SK-MEL-2): > 100 µM (inactive)
GI50 (SK-MEL-5): > 100 µM (inactive)
GI50 (SK-OV-3): > 100 µM (inactive)
GI50 (T47D): > 100 µM (inactive)

CC(C)(C)NC(=O)/C(=C\Sc1ccccc1)c1ccc2c(c1)OCO2
GI50 (786-0): 31.9 µM (inactive)
GI50 (A498): 20.4 µM (inactive)
GI50 (COLO 205): 22.4 µM (inactive)
GI50 (HCC 2998): 37.3 µM (inactive)
GI50 (HL-60): 18.7 µM (inactive)
GI50 (HOP-62): 44.3 µM (inactive)
GI50 (LOX IMVI): 16.1 µM (inactive)
GI50 (MCF7): 26.1 µM (inactive)
GI50 (MDA-MB-435): 22.2 µM (inactive)
GI50 (MDA-N): 22.8 µM (inactive)
GI50 (MOLT-4): 21.9 µM (inactive)
GI50 (OVCAR-4): 51.3 µM (inactive)
GI50 (OVCAR-5): 30.6 µM (inactive)
GI50 (OVCAR-8): 32 µM (inactive)
GI50 (SF-539): 35.3 µM (inactive)
GI50 (SK-MEL-2): 15.5 µM (inactive)
GI50 (SK-MEL-5): 17.6 µM (inactive)
GI50 (SK-OV-3): 52.5 µM (inactive)
GI50 (T47D): 26 µM (inactive)

O=C(c1ccccc1)c1c(C(F)(F)F)[n+]([O-])c2ccccc2[n+]1[O-]
GI50 (786-0): 1.92 µM (inactive)
GI50 (A498): 2.19 µM (inactive)
GI50 (COLO 205): 1.18 µM (inactive)
GI50 (HCC 2998): 1.25 µM (inactive)
GI50 (HL-60): 0.205 µM (active)
GI50 (HOP-62): 1.08 µM (active)
GI50 (Hs-578T): 3.15 µM (inactive)
GI50 (LOX IMVI): 0.291 µM (active)
GI50 (MCF7): 0.652 µM (active)
GI50 (MDA-MB-435): 0.798 µM (active)
GI50 (MOLT-4): 0.129 µM (active)
GI50 (OVCAR-4): 0.302 µM (active)
GI50 (OVCAR-5): 1.31 µM (inactive)
GI50 (OVCAR-8): 0.543 µM (active)
GI50 (SF-539): 1.83 µM (inactive)
GI50 (SK-MEL-2): 1.5 µM (inactive)
GI50 (SK-MEL-5): 1.87 µM (inactive)
GI50 (T47D): 0.396 µM (active)

N#C[BH2-][n+]1cn(C2CC(O)C(COP(=O)(O)OC3CC(n4cnc5c(=O)[nH]c(N)nc54)OC3CO)O2)c2nc(N)[nH]c(=O)c21 (stereo unspecified)
GI50 (786-0): > 100 µM (inactive)
GI50 (A498): > 100 µM (inactive)
GI50 (COLO 205): > 100 µM (inactive)
GI50 (HCC 2998): > 100 µM (inactive)
GI50 (HL-60): > 100 µM (inactive)
GI50 (HOP-62): 84.7 µM (inactive)
GI50 (MCF7): 39.5 µM (inactive)
GI50 (MDA-MB-435): > 100 µM (inactive)
GI50 (MDA-N): > 100 µM (inactive)
GI50 (OVCAR-4): > 100 µM (inactive)
GI50 (OVCAR-5): > 100 µM (inactive)
GI50 (OVCAR-8): > 100 µM (inactive)
GI50 (SF-539): > 100 µM (inactive)
GI50 (SK-MEL-2): > 100 µM (inactive)
GI50 (SK-MEL-5): > 100 µM (inactive)
GI50 (T47D): > 100 µM (inactive)

Cc1ccc(NC(=O)NC(=O)c2ccc([N+](=O)[O-])cc2[N+](=O)[O-])cc1Oc1ncc(Cl)cn1
GI50 (786-0): 0.466 µM (active)
GI50 (A498): 0.5 µM (active)
GI50 (COLO 205): 0.415 µM (active)
GI50 (HCC 2998): 0.271 µM (active)
GI50 (HL-60): 0.218 µM (active)
GI50 (HOP-62): 0.277 µM (active)
GI50 (Hs-578T): 0.05 µM (active)
GI50 (LOX IMVI): 0.637 µM (active)
GI50 (MCF7): 0.164 µM (active)
GI50 (MDA-MB-435): 0.063 µM (active)
GI50 (MOLT-4): 0.362 µM (active)
GI50 (OVCAR-4): 11.4 µM (inactive)
GI50 (OVCAR-5): 0.828 µM (active)
GI50 (OVCAR-8): 0.468 µM (active)
GI50 (SF-539): 0.287 µM (active)
GI50 (SK-MEL-5): 0.195 µM (active)
GI50 (SK-OV-3): 0.908 µM (active)
GI50 (T47D): 12.7 µM (inactive)

CC(C)(C)N(Cc1ccc2c(c1)OCO2)C(=O)/C=C\Sc1ccccc1
GI50 (786-0): > 100 µM (inactive)
GI50 (A498): 71 µM (inactive)
GI50 (COLO 205): 45.1 µM (inactive)
GI50 (HCC 2998): 97.1 µM (inactive)
GI50 (HL-60): 37.1 µM (inactive)
GI50 (HOP-62): > 100 µM (inactive)
GI50 (LOX IMVI): 77.8 µM (inactive)
GI50 (MCF7): 51.8 µM (inactive)
GI50 (MDA-MB-435): 25.8 µM (inactive)
GI50 (MDA-N): 19.5 µM (inactive)
GI50 (MOLT-4): 21.1 µM (inactive)
GI50 (OVCAR-4): 77.8 µM (inactive)
GI50 (OVCAR-5): > 100 µM (inactive)
GI50 (OVCAR-8): > 100 µM (inactive)
GI50 (SF-539): > 100 µM (inactive)
GI50 (SK-MEL-2): 25.2 µM (inactive)
GI50 (SK-MEL-5): 53.2 µM (inactive)
GI50 (SK-OV-3): > 100 µM (inactive)
GI50 (T47D): 21.4 µM (inactive)

Cc1cc(C)cc(Nc2nnc3n2S(=O)(=O)c2cc(C)c(Cl)cc2S3)c1
GI50 (786-0): 4.94 µM (inactive)
GI50 (A498): 5.09 µM (inactive)
GI50 (COLO 205): 4.72 µM (inactive)
GI50 (HCC 2998): 4.8 µM (inactive)
GI50 (HL-60): 4.17 µM (inactive)
GI50 (HOP-62): 7.31 µM (inactive)
GI50 (Hs-578T): 2.94 µM (inactive)
GI50 (LOX IMVI): 3.44 µM (inactive)
GI50 (MCF7): 3.77 µM (inactive)
GI50 (MDA-MB-435): 6.03 µM (inactive)
GI50 (MOLT-4): 3.08 µM (inactive)
GI50 (OVCAR-4): 8.69 µM (inactive)
GI50 (OVCAR-5): 5.35 µM (inactive)
GI50 (OVCAR-8): 3.97 µM (inactive)
GI50 (SF-539): 2.89 µM (inactive)
GI50 (SK-MEL-2): 2.7 µM (inactive)
GI50 (SK-MEL-5): 5.92 µM (inactive)
GI50 (SK-OV-3): 14.3 µM (inactive)
GI50 (T47D): 5.69 µM (inactive)
